Drawing on patent US10538555B2, “Macrocyclic inhibitors of the PD-1/PD-L1 and CD80(B7-1)/PD-L1 protein/protein interactions” (BRISTOL-MYERS SQUIBB COMPANY, priority 2014, dated 2020), this text covers IC50 for 6 molecules.

*1 amine or outer side, *2 acyl side, *3 side chain or, on linkers, in order; H or OH if unused. Where a SMILES comes first, the peptide text is derived from it. Bridges are numbered along the chain shown (N, C = ends). [ ]: non-standard residue; d: D form. ξ: configuration not given here. X10 = CC(C)C[C@H](CC(=O)[C@H](Cc1cnc[nH]1)N[*:1])C(=O)[*:2]; X5 = O=C(O)CC[C@H](N[*:1])C(=O)C1C[C@H](O)C[C@H]1C(=O)[*:2]; Phe(3,4-(OMe)2) = COc1ccc(C[C@H](N)C(=O)O)cc1OC; Phe(4-CN) = N#Cc1ccc(C[C@H](N)C(=O)O)cc1; Phe(4-Me) = Cc1ccc(C[C@H](N)C(=O)O)cc1; Hyp = O=C(O)[C@@H]1C[C@@H](O)CN1; X9 = NN[C@H](N[*:1])C(=O)[*:2]; Thr(3ξ) = CC(O)[C@H](N)C(=O)O; NMeNle = CCCC[C@H](NC)C(=O)O; NMeA = CN[C@@H](C)C(=O)O; Dab = NCC[C@H](N)C(=O)O

This assay concerns the target T1, Human PD-L1/PD-1 (Homo sapiens, UniProt Q9NZQ7).
T1 construct: TVMV protease cleavage site (C); made in house; host or cells: HEK293T cells
The experiment in a line: HTRF Human PD-L1/PD-1 binding assay (PD-1-Ig/PD-L1-His). As to conditions: PD-L1-His 10 nM, PD-1-Ig 20 nM; class symbol; read-out: HTRF Human PD-L1/PD-1 Binding Assay IC50 Range. The procedure, abridged:
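HTRF competition using HEK293T-expressed human PD-1(25-167)-Ig at 20 nM and PD-L1(18-239)-His at 10 nM, compound incubated first with PD-L1 for 15 min, then with PD-1 for 15 min. Signal read as 665/620 nm ratio 30 min after adding Eu anti-Ig and APC anti-His antibodies.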
For orientation: In TR-FRET formats the signal depends on donor and acceptor labels being close together.

T1 sequence (Q9NZQ7 with tags, fused parts or gaps): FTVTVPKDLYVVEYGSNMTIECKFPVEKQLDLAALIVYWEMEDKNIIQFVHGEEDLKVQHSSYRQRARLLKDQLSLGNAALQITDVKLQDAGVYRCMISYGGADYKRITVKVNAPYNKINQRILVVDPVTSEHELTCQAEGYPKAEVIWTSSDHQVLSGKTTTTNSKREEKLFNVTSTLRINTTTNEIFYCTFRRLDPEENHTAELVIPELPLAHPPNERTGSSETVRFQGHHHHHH

As for `CCCC[C@H]1C(=O)N(C)[C@@H](CCCC)C(=O)N[C@@H](CCCNC(=N)N)C(=O)N[C@H](C(=O)NCC(N)=O)CSCC(=O)N[C@@H](Cc2ccc(C)cc2)C(=O)N(C)[C@@H](C)C(=O)N[C@@H](CC(N)=O)C(=O)N2CCC[C@H]2C(=O)N[C@@H](Cc2cnc[nH]2)C(=O)C[C@@H](CC(C)C)C(=O)N2C[C@H](O)C[C@H]2C(=O)N[C@@H](Cc2c[nH]c3ccccc23)C(=O)N[C@@H](CO)C(=O)N[C@@H](Cc2c[nH]c3ccccc23)C(=O)N1C` [Example 7071] ({CH2CO}-[Phe(4-Me)][NMeA]NP[X10][Hyp]WSW[NMeNle][NMeNle]RCG-NH2; thioether N-13), the IC50 lay within 1 to 9.9 nM.

Turning to `CCCC[C@H]1C(=O)N(C)[C@@H](CCCC)C(=O)N[C@@H](CCCNC(=N)N)C(=O)N[C@H](C(=O)NCC(N)=O)CSCC(=O)N[C@@H](Cc2ccc(OC)c(OC)c2)C(=O)N(C)[C@@H](C)C(=O)N[C@@H](CC(N)=O)C(=O)N2CCC[C@H]2C(=O)N[C@@H](Cc2cnc[nH]2)C(=O)N[C@@H](CC(C)C)C(=O)N2C[C@H](O)C[C@H]2C(=O)N[C@@H](Cc2c[nH]c3ccccc23)C(=O)N[C@@H](CO)C(=O)N[C@@H](Cc2c[nH]c3ccccc23)C(=O)N1C` [Example 7072] ({CH2CO}-[Phe(3,4-(OMe)2)][NMeA]NPHL[Hyp]WSW[NMeNle][NMeNle]RCG-NH2; thioether N-14), the IC50 fell in the range of 1 to 9.9 nM.

Take `CCCC[C@H]1C(=O)N(C)[C@@H](CCCC)C(=O)N[C@@H](CCCNC(=N)N)C(=O)N[C@H](C(=O)NCC(N)=O)CSCC(=O)N[C@@H](Cc2ccc(O)cc2)C(=O)N(C)[C@@H](C)C(=O)N[C@@H](CC(N)=O)C(=O)N2CCC[C@H]2C(=O)N[C@@H](NN)C(=O)N[C@@H](CC(C)C)C(=O)N2C[C@H](O)C[C@H]2C(=O)N[C@@H](Cc2c[nH]c3ccccc23)C(=O)N[C@@H]([C@@H](C)O)C(=O)N[C@@H](Cc2c[nH]c3ccccc23)C(=O)N1C` [Example 7073] ({CH2CO}-Y[NMeA]NP[X9]L[Hyp]WTW[NMeNle][NMeNle]RCG-NH2; thioether N-14): the IC50 is 1 to 9.9 nM.

For the molecule `CCCC[C@H]1C(=O)N(C)[C@@H](CCCC)C(=O)N[C@@H](CCCNC(=N)N)C(=O)N[C@H](C(=O)NCC(N)=O)CSCC(=O)N[C@@H](Cc2ccc(O)cc2)C(=O)N(C)[C@@H](C)C(=O)N[C@@H](CC(N)=O)C(=O)N2CCC[C@H]2C(=O)N[C@@H](Cc2cnc[nH]2)C(=O)N[C@@H](CC(C)C)C(=O)N2C[C@H](O)C[C@H]2C(=O)N[C@@H](Cc2c[nH]c3ccccc23)C(=O)N[C@@H](C(C)O)C(=O)N[C@@H](Cc2c[nH]c3ccccc23)C(=O)N1C` (stereo partly drawn) [Example 7075] ({CH2CO}-Y[NMeA]NPHL[Hyp]W[Thr(3ξ)]W[NMeNle][NMeNle]RCG-NH2; thioether N-14), the IC50 was in the range of 1 to 9.9 nM.

Regarding `CCCC[C@H]1C(=O)N(C)[C@@H](CCCC)C(=O)N[C@@H](CCCNC(=N)N)C(=O)N[C@H](C(=O)NCC(N)=O)CSCC(=O)N[C@@H](Cc2ccc(C#N)cc2)C(=O)N(C)[C@@H](C)C(=O)N[C@@H](CC(N)=O)C(=O)N2CCC[C@H]2C(=O)N[C@@H](Cc2cnc[nH]2)C(=O)N[C@@H](CCC(=O)O)C(=O)C2C[C@H](O)C[C@H]2C(=O)N[C@@H](Cc2c[nH]c3ccccc23)C(=O)N[C@@H](CCN)C(=O)N[C@@H](Cc2c[nH]c3ccccc23)C(=O)N1C` (stereo partly drawn) [Example 7077] ({CH2CO}-[Phe(4-CN)][NMeA]NPH[X5]W[Dab]W[NMeNle][NMeNle]RCG-NH2; thioether N-13), the IC50 lay within 1 to 9.9 nM.

In the case of `CCCC[C@H]1C(=O)N(C)[C@@H](CCCC)C(=O)N[C@@H](CCCNC(=N)N)C(=O)N[C@H](C(=O)NCC(N)=O)CSCC(=O)N[C@@H](Cc2ccc(C#N)cc2)C(=O)N(C)[C@@H](C)C(=O)N[C@@H](CC(N)=O)C(=O)N2CCC[C@H]2C(=O)N[C@@H](Cc2cnc[nH]2)C(=O)N[C@@H](CCC(=O)O)C(=O)N2C[C@H](O)C[C@H]2C(=O)N[C@@H](Cc2c[nH]c3ccccc23)C(=O)N[C@@H](CO)C(=O)N[C@@H](Cc2c[nH]c3ccccc23)C(=O)N1C` [Example 7078] ({CH2CO}-[Phe(4-CN)][NMeA]NPHE[Hyp]WSW[NMeNle][NMeNle]RCG-NH2; thioether N-14), the IC50 is 10 to 99.9 nM.
